Reference: the Kinase Knowledgebase extract (Sharma et al. 2016)
Where “and” joins values, the source holds several entries; their conditions need not be identical. Identical values can stand only once.

target: EGFR (UniProt P00533); conditions: not given
Sequence (P00533 whole entry, looked up): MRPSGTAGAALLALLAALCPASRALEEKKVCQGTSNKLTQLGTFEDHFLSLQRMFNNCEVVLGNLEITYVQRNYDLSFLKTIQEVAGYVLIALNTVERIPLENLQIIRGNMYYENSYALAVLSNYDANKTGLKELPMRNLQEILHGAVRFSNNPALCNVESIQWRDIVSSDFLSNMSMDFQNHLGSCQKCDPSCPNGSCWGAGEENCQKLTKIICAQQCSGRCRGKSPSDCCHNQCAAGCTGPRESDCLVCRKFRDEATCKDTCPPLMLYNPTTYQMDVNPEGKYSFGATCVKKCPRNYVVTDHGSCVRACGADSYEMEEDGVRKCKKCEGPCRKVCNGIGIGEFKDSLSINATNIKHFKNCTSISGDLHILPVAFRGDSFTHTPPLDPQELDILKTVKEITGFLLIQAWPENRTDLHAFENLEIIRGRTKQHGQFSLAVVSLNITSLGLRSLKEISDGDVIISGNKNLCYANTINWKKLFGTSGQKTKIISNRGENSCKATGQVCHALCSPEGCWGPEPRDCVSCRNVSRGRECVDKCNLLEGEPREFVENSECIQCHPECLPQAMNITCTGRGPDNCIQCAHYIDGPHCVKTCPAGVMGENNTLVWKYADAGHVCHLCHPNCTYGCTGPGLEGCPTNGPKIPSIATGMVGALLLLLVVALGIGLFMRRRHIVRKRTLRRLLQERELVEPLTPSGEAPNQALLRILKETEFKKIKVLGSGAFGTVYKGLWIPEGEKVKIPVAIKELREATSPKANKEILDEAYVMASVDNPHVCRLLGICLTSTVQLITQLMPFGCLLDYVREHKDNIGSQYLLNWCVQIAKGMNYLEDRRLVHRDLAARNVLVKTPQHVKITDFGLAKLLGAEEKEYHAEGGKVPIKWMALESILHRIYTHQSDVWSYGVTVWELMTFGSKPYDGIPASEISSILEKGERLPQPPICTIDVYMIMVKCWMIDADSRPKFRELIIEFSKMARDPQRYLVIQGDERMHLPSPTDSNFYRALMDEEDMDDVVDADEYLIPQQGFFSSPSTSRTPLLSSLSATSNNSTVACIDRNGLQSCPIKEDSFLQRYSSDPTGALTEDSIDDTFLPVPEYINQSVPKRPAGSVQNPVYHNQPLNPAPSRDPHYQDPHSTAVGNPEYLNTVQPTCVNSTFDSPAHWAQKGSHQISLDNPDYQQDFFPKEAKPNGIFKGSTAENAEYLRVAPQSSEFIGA

Which IC50 does the source give for Brc1cccc(Nc2ncnc3cc(NCCCN4CCOCC4)ncc23)c1 here?
Its IC50 is 0.0074 µM.

How did the IC50 turn out when COc1cc2ncnc(NCc3cccc(Br)c3)c2cc1OC was run?
The IC50 was 0.01 µM.

For CC(=O)Oc1cccc2c1c(C(=O)Nc1ccccc1)c(SSc1c(C(=O)Nc3ccccc3)c3c(OC(C)=O)cccc3n1C)n2C, which IC50 is on record?
The IC50 was 10 µM.

How did the IC50 turn out when CNc1cc2ncnc(Nc3cccc(Br)c3)c2cn1 was run?
The IC50 was 9.1e-05 µM.

With COc1cc2c(NC3CC3c3ccccc3)ncnc2cc1OCCCN(C)C (centres undefined) as the molecule, how does the IC50 read?
Its IC50 is 0.003 µM.

Which IC50 does the source give for Brc1cccc(Nc2ncnc3ccccc23)c1 here?
The IC50 was 0.02 µM and 0.023 µM.

Which IC50 does the source give for O=CN/C=C/c1cc(O)ccc1O here?
Its IC50 is 0.367 µM.

For COc1cc2ncnc(Nc3ccc(F)c(Br)c3)c2cc1OCCCN1CCOCC1, which IC50 is on record?
The IC50 was 0.02 µM.

For O=C1NC(=O)c2cc(NC3CCCCC3)c(NC3CCCCC3)cc21, which IC50 is on record?
The IC50 was over 1000 µM.

For COc1cc2ncnc(NC3CC3c3ccccc3)c2cc1OC (centres undefined), which IC50 is on record?
The IC50 was 0.01 µM.

With C=CC(=O)Nc1ccc2sc3c(Nc4cccc(Br)c4)ncnc3c2c1 as the molecule, how does the IC50 read?
Its IC50 is 0.023 µM.

How did the IC50 turn out when Nc1ccc(-c2n[nH]c3ncnc(Nc4cccc(Cl)c4)c23)cc1 was run?
Its IC50 is 0.002 µM.

How did the IC50 turn out when COc1cc2ncnc(N[C@@H](C)c3cccc(Br)c3)c2cc1OC was run?
Its IC50 is 3.76 µM.

How did the IC50 turn out when CNC(=O)c1c([Se][Se]c2c(C(=O)NC)c3ccccc3n2C)n(C)c2ccccc12 was run?
The IC50 was 6.1 µM.

COc1cc2ncnc(N(C)c3cccc(C)c3)c2cc1OC was tested. Which IC50 did it give?
Its IC50 is 12 µM.

Which IC50 does the source give for COc1cccc(CNc2n[nH]c3ncnc(Nc4cccc(Cl)c4)c23)c1 here?
The IC50 was 0.008 µM.

C=CC(=O)Nc1cccc2c1sc1c(Nc3cccc(Br)c3)ncnc12 was tested. Which IC50 did it give?
Its IC50 is 0.0014 µM.

How did the IC50 turn out when Cc1cccc(N(C)c2ncnc3[nH]ncc23)c1 was run?
The IC50 was over 50 µM.

For Clc1cccc(Nc2ncnc3[nH]c4ccccc4c23)c1, which IC50 is on record?
The IC50 was 0.006 µM.

For COc1cc2ncnc(Nc3cncc4ccccc34)c2cc1OC, which IC50 is on record?
The IC50 was 0.006 µM.

How did the IC50 turn out when COC(=O)Cc1c(SSc2[nH]c3ccccc3c2CC(=O)OC)[nH]c2ccccc12 was run?
Its IC50 is 18 µM.

Which IC50 does the source give for C=CC(=O)Nc1ccc2c(c1)sc1c(Nc3cccc(Br)c3)ncnc12 here?
Its IC50 is 0.021 µM.

With Clc1cccc(Nc2ncnc3ccccc23)c1 as the molecule, how does the IC50 read?
Its IC50 is 0.04 µM and 0.027 µM.

CN(C)CCCCNc1cc2ncnc(Nc3cccc(Br)c3)c2cn1 was tested. Which IC50 did it give?
Its IC50 is 0.0019 µM.

How did the IC50 turn out when Clc1cccc(Nc2ncnc3[nH]nc(Nc4cccc(Cl)c4)c23)c1 was run?
The IC50 was 0.033 µM.

With COc1cc2ncnc(N[C@H](C)c3cccc(Br)c3)c2cc1OC as the molecule, how does the IC50 read?
Its IC50 is 0.0016 µM.

With Brc1cccc(Nc2ncnc3cc4[nH]ccc4cc23)c1 as the molecule, how does the IC50 read?
The IC50 was 0.00044 µM.

How did the IC50 turn out when Cc1cccc2c(CCC(=O)O)c(SSc3[nH]c4c(C)cccc4c3CCC(=O)O)[nH]c12 was run?
Its IC50 is 1.5 µM.

How did the IC50 turn out when Brc1cccc(Nc2ncnc3cc4cn[nH]c4cc23)c1 was run?
Its IC50 is 0.00034 µM.

How did the IC50 turn out when Brc1cccc(Nc2ncnc3cc4[nH]ncc4cc23)c1 was run?
The IC50 was 0.00044 µM.

Which IC50 does the source give for Cn1c(SSc2c(C(=O)Nc3ccccc3)c3ccccc3n2C)c(C(=O)Nc2ccccc2)c2ccccc21 here?
Its IC50 is 20 µM.

How did the IC50 turn out when Nc1nc(N)c2c(Nc3cccc(Cl)c3)n[nH]c2n1 was run?
The IC50 was 0.22 µM.

target: EGFR (UniProt P00533); conditions: various cell lines

How did the IC50 turn out when Brc1cccc(Nc2ncnc3cc(NCCCN4CCOCC4)ncc23)c1 was run?
The IC50 was 0.038 µM.

How did the IC50 turn out when COc1cc2ncnc(Oc3cccc(Br)c3)c2cc1OC was run?
The IC50 was 0.07 µM.

With COc1cc2nccc(Oc3cccc(Br)c3)c2cc1OC as the molecule, how does the IC50 read?
The IC50 was 2.5 µM.

Brc1cccc(Nc2ncnc3cc4c(ccn4CCN4CCOCC4)cc23)c1 was tested. Which IC50 did it give?
Its IC50 is 0.016 µM.

Which IC50 does the source give for COc1cc2cc(-c3ccccc3)c(Cl)nc2cc1OC here?
The IC50 was over 0.03 µM.

CN(C)Cc1c[nH]c2cc3ncnc(Nc4cccc(Br)c4)c3cc12 was tested. Which IC50 did it give?
The IC50 was 0.0097 µM.

For CN(C)CCNc1cc2c(Nc3cccc(Br)c3)ncnc2cn1, which IC50 is on record?
Its IC50 is 0.048 µM.

For C/C(O)=C(/C#N)C(=O)Nc1ccc(C(F)(F)F)cc1, which IC50 is on record?
Its IC50 is 35 µM.

How did the IC50 turn out when CNc1cc2c(Nc3cccc(Br)c3)ncnc2cn1 was run?
The IC50 was 0.013 µM.

C=CC(=O)Nc1cccc2c1sc1c(Nc3cccc(Br)c3)ncnc12 was tested. Which IC50 did it give?
Its IC50 is 0.024 µM.

For Brc1cccc(Nc2ncnc3cc4[nH]cc(CN5CCOCC5)c4cc23)c1, which IC50 is on record?
Its IC50 is 0.0096 µM.

With Brc1cccc(Nc2ncnc3cnc(NCCN4CCOCC4)cc23)c1 as the molecule, how does the IC50 read?
The IC50 was 0.0079 µM.

Brc1cccc(Nc2ncnc3cnc(NCCc4c[nH]cn4)nc23)c1 was tested. Which IC50 did it give?
The IC50 was 0.0051 µM.

CNc1ncc2ncnc(Nc3cccc(Br)c3)c2n1 was tested. Which IC50 did it give?
Its IC50 is 0.03 µM.

CCN(CC)CC(O)CNc1cc2c(Nc3cccc(Br)c3)ncnc2cn1 (centres undefined) was tested. Which IC50 did it give?
The IC50 was 0.028 µM.

For CN(C)CCCCNc1cc2ncnc(Nc3cccc(Br)c3)c2cn1, which IC50 is on record?
The IC50 was 0.0081 µM.

How did the IC50 turn out when Brc1cccc(Nc2ncnc3cc4[nH]ccc4cc23)c1 was run?
Its IC50 is 0.02 µM.
